Drawing on ChEMBL document CHEMBL5550152, “Design, synthesis and evaluation of novel prostate-specific membrane antigen-targeted aryl [18F]fluorosulfate PET tracers” (Bioorg Med Chem, 2024), this text covers Stability and Drug uptake for one compound.

The nature of series [1]: Stability of the compound in PBS buffer measured after 4 hrs by radio-HPLC analysis. Format: physicochemical.
Series [2] is described as follows: Drug uptake in human 22Rv1 cells at 3.7 10^-2MBq pretreated with 2-PMPA for 30 mins followed by compound addition and measured after 1 hr. Format: ADME, cell-based. The conditions noted are these: cwr22r.
A short description of series [3]: Stability in mouse plasma measured after 4 hrs by radio-HPLC analysis. Format: ADME, cell-free.
Series [4] is described as follows: Drug uptake in human 22Rv1 cells at 3.7 10^-2MBq measured after 4 hrs relative to control. It is filed as ADME, cell-based. The conditions noted are these: cwr22r.
The nature of series [5]: Drug uptake in human 22Rv1 cells at 3.7 10^-2MBq measured after 1 hr. The conditions noted are these: cwr22r. It is filed as ADME, cell-based.
Series [6] can be described thus: Drug uptake in human 22Rv1 cells at 3.7 10^-2MBq pretreated with 2-PMPA for 30 mins followed by compound addition and measured after 4 hr relative to control. Format: ADME, cell-based. The following applies: cwr22r.
Series [7] is described as follows: Drug uptake in mouse tumor xenografted with human 22Rv1 cells at 7.4 MBq, iv measured after 2 hrs by PET imaging analysis relative to control. It is filed as ADME, organism-based, Neoplasm, CWR22R. The following applies: in vivo. (Xenograft models place foreign cells or tissue in a host animal.)

Turning to `O=C(O)CC[C@H](NC(=O)N[C@@H](CCCCNC(=O)[C@H](Cc1ccc2ccccc2c1)NC(=O)c1ccc(CNC(=O)[C@H](CCC(=O)O)NC(=O)[C@H](CCC(=O)O)NC(=O)c2ccc(OS(=O)(=O)[18F])cc2)cc1)C(=O)O)C(=O)O`, the Stability entry in series [1] and in series [3] was “Stable” throughout. The Drug uptake entry in series [2] is on record as “Not Active”; in series [4], 0.65%; in series [5] it was “Not Active”; in series [6], 0.14%; in series [7], 2.68 % ID/g.
